Source: patent US8758816B2, “Compositions comprising azelastine and methods of use thereof” (priority 2004, dated 2014)
Counter-ions that a name gives are not always drawn.

System: patients with seasonal allergic rhinitis (SAR)
Assay: MP 428 two-week randomized double-blind study: Total Nasal Symptom Score (TNSS), change from baseline
Assay type: in vivo, human
Set-up: key to Change from Baseline in AM TNSS, Mean / Change from Baseline in AM TNSS, LS Mean / Change from Baseline in AM TNSS, Median: TNSS sum of 4 symptoms each 0-3 (0=none, 3=severe); change from baseline
Settings: for AUC of Change from Baseline in TNSS (AM and PM Combined), Mean / AUC of Change from Baseline in TNSS (AM and PM Combined), Median / AUC of Change from Baseline in TNSS (AM and PM Combined), LS Mean: Day 1 to Day 14; for AUC of Change from Baseline in TNSS (AM and PM Combined), LS Mean: ANCOVA
Description: A two-week, randomized, double-blind study, which evaluated the effects of the co-administration of ASTELIN® (azelastine hydrochloride (HCl)) and FLONASE® (fluticasone propionate) compared to either product alone in patients with seasonal allergic rhinitis (SAR) was conducted during the 2006 Texas mountain cedar season. After a 5-day placebo lead-in period, 151 patients with moderate-to-severe allergic rhinitis symptoms were randomized to either: (1) (49 total patients) ASTELIN® (azelastine hydrochloride (HCl)) plus placebo saline nasal spray 2 sprays per nostril, 15 minutes apart, twice daily (AM & PM); (2) (50 total patients) FLONASE® (fluticasone propionate) plus placebo saline nasal spray, 2 sprays per nostril, 15 minutes apart, once daily (AM) and two sessions of placebo saline nasal spray, 2 sprays per nostril, 15 minutes apart (PM); or (3) (52 total patients) the co-administration of ASTELIN® (azelastine hydrochloride (HCl)) 2 sprays per nostril plus FLONASE® (fluticasone propionate) 2 sprays per nostril (AM), 15 minutes apart, and ASTELIN® (azelastine hydrochloride (HCl)) 2 sprays per nostril plus placebo saline nasal spray, 15 minutes apart, (PM) for a 2-week double-blind treatment period.
The primary efficacy variable was the change from baseline in the Total Nasal Symptom Score (TNSS), which comprised sneezing, itchy nose, runny nose, and nasal congestion (individual symptoms scores were assigned a value between 0 and 3, where 0=no symptoms and 3=severe symptoms). This study was not statistically designed to assess the differences between ASTELIN® and FLONASE®.

[1] = Day 12, Per-Protocol Population
[2] = Day 13, Intent-to-Treat Population
[3] = Day 13, Per-Protocol Population
[4] = Day 14, Intent-to-Treat Population
[5] = Day 14, Per-Protocol Population
[6] = Overall (Day 2 to Day 14), Intent-to-Treat Population
[7] = Overall (Day 2 to Day 14), Per-Protocol Population

CN1CCCC(n2nc(Cc3ccc(Cl)cc3)c3ccccc3c2=O)CC1 (racemic) [Azelastine, (±)-1-(2H)-phthalazinone, 4-[(4-chlorophenyl)methyl]-2-(hexahydro-1-methyl-1H-azepin-4-yl)-, mono-hydrochloride]
Percent Change from Baseline in PM TNSS, Median (Day 12, Intent-to-Treat Population): −25.00% | Change from Baseline in AM and PM Combined TNSS, LS Mean (Day 12, Intent-to-Treat Population, ANCOVA model): −5.46 | Change from Baseline in AM and PM Combined TNSS, LS Mean [1]: −5.40 | Change from Baseline in AM and PM Combined TNSS, Mean [1]: −5.54 | Change from Baseline in AM and PM Combined TNSS, Median [1]: −5.00 | Percent Change from Baseline in AM and PM Combined TNSS, LS Mean [1]: −27.82% | Percent Change from Baseline in AM and PM Combined TNSS, Mean [1]: −28.25% | Percent Change from Baseline in AM and PM Combined TNSS, Median [1]: −25.86% | Change from Baseline in AM TNSS, LS Mean [2]: −2.55 | Change from Baseline in AM TNSS, Mean [2]: −2.50 | Change from Baseline in AM TNSS, Median [2]: −1.80 | Change from Baseline in AM and PM Combined TNSS, Mean [2]: −5.70 | Change from Baseline in AM and PM Combined TNSS, Median [2]: −5.30 | Change from Baseline in PM TNSS, LS Mean [2]: −3.11 | Change from Baseline in PM TNSS, Mean [2]: −3.21 | Change from Baseline in PM TNSS, Median [2]: −3.00 | Percent Change from Baseline in AM TNSS, LS Mean [2]: −26.36% | Percent Change from Baseline in AM TNSS, Mean [2]: −26.20% | Percent Change from Baseline in AM TNSS, Median [2]: −18.37% | Percent Change from Baseline in AM and PM Combined TNSS, LS Mean [2]: −29.24% | Percent Change from Baseline in AM and PM Combined TNSS, Mean [2]: −29.35% | Percent Change from Baseline in AM and PM Combined TNSS, Median [2]: −26.15% | Percent Change from Baseline in PM TNSS, LS Mean [2]: −32.19% | Percent Change from Baseline in PM TNSS, Mean [2]: −32.27% | Percent Change from Baseline in PM TNSS, Median [2]: −33.33% | Change from Baseline in AM and PM Combined TNSS, LS Mean (Day 13, Intent-to-Treat Population, ANCOVA model): −5.65 | Change from Baseline in AM and PM Combined TNSS, LS Mean [3]: −5.59 | Change from Baseline in AM and PM Combined TNSS, Mean [3]: −5.70 | Change from Baseline in AM and PM Combined TNSS, Median [3]: −5.30 | Percent Change from Baseline in AM and PM Combined TNSS, LS Mean [3]: −29.06% | Percent Change from Baseline in AM and PM Combined TNSS, Mean [3]: −29.35% | Percent Change from Baseline in AM and PM Combined TNSS, Median [3]: −26.15% | Change from Baseline in AM TNSS, LS Mean [4]: −2.56 | Change from Baseline in AM TNSS, Mean [4]: −2.52 | Change from Baseline in AM TNSS, Median [4]: −2.00 | Change from Baseline in AM and PM Combined TNSS, Mean [4]: −5.62 | Change from Baseline in AM and PM Combined TNSS, Median [4]: −5.30 | Change from Baseline in PM TNSS, LS Mean [4]: −3.00 | Change from Baseline in PM TNSS, Mean [4]: −3.10 | Change from Baseline in PM TNSS, Median [4]: −2.80 | Percent Change from Baseline in AM TNSS, LS Mean [4]: −26.51% | Percent Change from Baseline in AM TNSS, Mean [4]: −26.44% | Percent Change from Baseline in AM TNSS, Median [4]: −20.00% | Percent Change from Baseline in AM and PM Combined TNSS, LS Mean [4]: −28.70% | Percent Change from Baseline in AM and PM Combined TNSS, Mean [4]: −28.86% | Percent Change from Baseline in AM and PM Combined TNSS, Median [4]: −25.00% | Percent Change from Baseline in PM TNSS, LS Mean [4]: −31.07% | Percent Change from Baseline in PM TNSS, Mean [4]: −31.14% | Percent Change from Baseline in PM TNSS, Median [4]: −28.57% | Change from Baseline in AM and PM Combined TNSS, LS Mean (Day 14, Intent-to-Treat Population, ANCOVA model): −5.56 | Change from Baseline in AM and PM Combined TNSS, LS Mean [5]: −5.50 | Change from Baseline in AM and PM Combined TNSS, Mean [5]: −5.62 | Change from Baseline in AM and PM Combined TNSS, Median [5]: −5.30 | Percent Change from Baseline in AM and PM Combined TNSS, LS Mean [5]: −28.52% | Percent Change from Baseline in AM and PM Combined TNSS, Mean [5]: −28.86% | Percent Change from Baseline in AM and PM Combined TNSS, Median [5]: −25.00% | AUC of Change from Baseline in TNSS (AM and PM Combined), Mean (Intent-to-Treat Population): −60.38 | AUC of Change from Baseline in TNSS (AM and PM Combined), Median (Intent-to-Treat Population): −56.00 | AUC of Change from Baseline in TNSS (AM and PM Combined), LS Mean (Intent-to-Treat Population): −59.72 | Change from Baseline in AM TNSS, LS Mean [6]: −2.22 | Change from Baseline in AM TNSS, Mean [6]: −2.21 | Change from Baseline in AM TNSS, Median [6]: −1.86 | Change from Baseline in AM and PM Combined TNSS, Mean [6]: −4.73 | Change from Baseline in AM and PM Combined TNSS, Median [6]: −4.24 | Change from Baseline in PM TNSS, LS Mean [6]: −2.57 | Change from Baseline in PM TNSS, Mean [6]: −2.51 | Change from Baseline in PM TNSS, Median [6]: −2.38 | Percent Change from Baseline in AM TNSS, LS Mean [6]: −23.13% | Percent Change from Baseline in AM TNSS, Mean [6]: −23.29% | Percent Change from Baseline in AM TNSS, Median [6]: −19.23% | Percent Change from Baseline in AM and PM Combined TNSS, LS Mean [6]: −24.78% | Percent Change from Baseline in AM and PM Combined TNSS, Mean [6]: −24.47% | Percent Change from Baseline in AM and PM Combined TNSS, Median [6]: −24.26% | Percent Change from Baseline in PM TNSS, LS Mean [6]: −26.45% | Percent Change from Baseline in PM TNSS, Mean [6]: −25.39% | Percent Change from Baseline in PM TNSS, Median [6]: −21.68% | Change from Baseline in AM and PM Combined TNSS, LS Mean (Overall (Day 2 to Day 14), Intent-to-Treat Population, ANCOVA model): −4.76 | Change from Baseline in AM and PM Combined TNSS, LS Mean [7]: −4.73 | Change from Baseline in AM and PM Combined TNSS, Mean [7]: −4.73 | Change from Baseline in AM and PM Combined TNSS, Median [7]: −4.24 | Percent Change from Baseline in AM and PM Combined TNSS, LS Mean [7]: −24.72% | Percent Change from Baseline in AM and PM Combined TNSS, Mean [7]: −24.47% | Percent Change from Baseline in AM and PM Combined TNSS, Median [7]: −24.26% | AUC of Change from Baseline in TNSS (AM and PM Combined), Mean (Per-Protocol Population): −60.38 | AUC of Change from Baseline in TNSS (AM and PM Combined), Median (Per-Protocol Population): −56.00 | AUC of Change from Baseline in TNSS (AM and PM Combined), LS Mean (Per-Protocol Population): −59.23
